Consider three compounds from US9073854B2, “Aromatic sulfonium salt compound” (ADEKA CORPORATION, priority 2009, dated 2015).

Each structure is given as a SMILES string. A value given as a limit tells only on which side of the number the result lay.

The data set in a line: Solubility in polyvinylphenol/tetramethylammonium hydroxide (TMAH) aqueous solution. Type of data set: physicochemical. The note with it: mass ratio of compound to polyvinylphenol of the saturated solution; polyvinylphenol in 3% TMAH aqueous solution. As to the method: In a screw-top tube were put 0.36 g of polyvinylphenol (S-2P from Maruzen Petrochemical Co., Ltd.; Mw: 5800) and 10.00 g of a 3% TMAH aqueous solution and heated to dissolve. A 2.00 g portion of the resulting solution was put in another screw-top tube, and a small amount of each of compound Nos. 1 and 5 and comparative compound No. 1 (intermediate No. 7 obtained in step 1 of Example 1-7) was added thereto and heated. A visual check was made to see whether the compound dissolved. This operation was repeated until saturation. The saturated solution was allowed to stand one day to make sure that no solid precipitated. The mass ratio of each compound to the polyvinylphenol of the saturated solution was taken as a parameter of solubility.
With `Cn1c2ccccc2c(=O)c2cc([S+](c3ccc(F)cc3)c3ccc(F)cc3)ccc21` [Comp. Compound No. 1, reference compound], the Solubility (%) was under 1%.

On to `Cn1c2ccccc2c(=O)c2cc([S+](c3ccc(O)cc3)c3ccc(O)cc3)ccc21` [Compound No. 1], for which the “Solubility (%)” value was 70%.

In the case of `O=c1c2ccccc2n(Cc2cccc(O)c2)c2ccc([S+](c3ccc(F)cc3)c3ccc(F)cc3)cc12` [Compound No. 5], the “Solubility (%)” value is given as 29%.
